Molecules are shown by their SMILES.

Assay [1] concerns the target T1, CHLαGcT (cholesterol α-glucosyltransferase; HP0421) (Helicobacter pylori, UniProt O25175). The assay can be described thus: glucosyltransferase inhibition assay. Conditions: UDP-Glc 3.6 μM, cholesterol 400 μM (so in the source); cited from earlier work. The format is biochemical.
Assay [2] addresses T1, CHLαGcT (cholesterol α-glucosyltransferase; HP0421). The assay can be described thus: product inhibition, Lineweaver-Burk. The format is biochemical. The following applies: varied UDP-Glc; competitive with UDP-Glc.

As a reminder, the IC50 is the midpoint of a concentration-inhibition curve. Consider `CC(=O)N[C@H]1[C@@H](Oc2ccc([N+](=O)[O-])cc2)O[C@H](CO)[C@H](O)[C@@H]1O[C@@H]1O[C@H](CO)[C@H](O)[C@H](O)[C@H]1O` [Galβ1→3GalNAcα1→p-nitrophenol], for which the IC50 in assay [1] is 7.49 mM.

On to `CCCCCCCCO[C@H]1O[C@H](CO[C@@H]2O[C@H](CO)[C@@H](O[C@@H]3O[C@H](CO)[C@H](O[C@H]4O[C@H](CO)[C@@H](O)[C@H](O)[C@H]4NC(C)=O)[C@H](O)[C@H]3O)[C@H](O)[C@H]2NC(C)=O)[C@H](O)[C@H](O[C@@H]2O[C@H](CO)[C@H](O)[C@H](O)[C@H]2O)[C@H]1NC(C)=O` [GlcNAcα1→4Galβ1→4GlcNAcβ1→6(Galβ1→3)GalNAcα1→octyl], for which the IC50 in assay [1] was 0.47 mM.

Turning to `CC(=O)N[C@H]1[C@H](OC[C@H]2O[C@H](Oc3ccc([N+](=O)[O-])cc3)[C@H](NC(C)=O)[C@@H](O[C@@H]3O[C@H](CO)[C@H](O)[C@H](O)[C@H]3O)[C@H]2O)O[C@H](CO)[C@@H](O)[C@@H]1O` [GlcNAcβ1→6(Galβ1→3)GalNAcα1→p-nitrophenol], the IC50 in assay [1] was 2.21 mM.

`CCCCCCCCO[C@H]1O[C@H](CO)[C@H](O)[C@H](O[C@@H]2O[C@H](CO)[C@H](O)[C@H](O[C@]3(C(=O)O)C[C@H](O)[C@@H](NC(C)=O)[C@H]([C@H](O)[C@H](O)CO)O3)[C@H]2O)[C@H]1NC(C)=O` [NeuAcα2→3Galβ1→3GalNAcα1→octyl]: the IC50 in assay [1] was 1.09 mM.

In the case of `O=c1ccn([C@@H]2O[C@H](COP(=O)(O)OP(=O)(O)O)[C@@H](O)[C@H]2O)c(=O)[nH]1` [UDP], in assay [2], the “product inhibition, Lineweaver-Burk” value is “inhibition profile of UDP in the presence of UDP-Glc intersected at the Y-axis, indicating competitive inhibition”.

Source of the values: publication PMC2666621 (Current drug metabolism, 2009).
